{"source": "patent US11566002B2", "about": "“Substituted tetrahydrocyclopenta[C]pyrroles, substituted dihydropyrrolizines, analogues thereof, and methods using same” (priority 2018, dated 2023)", "data": [{"test_system": "HBV rcDNA", "test": "HepDE19 assay with bDNA quantitation of HBV rcDNA", "type": "cell-based, hepatitis B virus", "settings": "HepDE19 cells, Tet-free medium, 7 day-incubation, rcDNA measured by Quantigene 2.0 bDNA assay, top concentration 25 μM; read-out: DE-19 bDNA EC50", "protocol": "(§1) HepDE19 Assay with bDNA Quantitation of HBV rcDNA:\n(§2) HepDE19 cell culture system is a HepG2 (human hepatocarcinoma) derived cell line that supports HBV DNA replication and cccDNA formation in a tetracycline (Tet)-regulated manner and produces HBV rcDNA and a detectable reporter molecule dependent on the production and maintenance of cccDNA (Guo, et al., 2007, J. Virol. 81:12472-12484).\n(§3) HepDE19 (50,000 cells/well) were plated in 96-well collagen-coated tissue-culture treated microtiter plates in DMEM/F12 medium supplemented with 10% fetal bovine serum, 1% penicillin-streptomycin and 1 μg/mL tetracycline and incubated in a humidified incubator at 37° C. and 5% CO2 overnight. Next day, the cells were switched to fresh medium without tetracycline and incubated for 4 hours at 37° C. and 5% CO2. The cells were treated with fresh Tet-free medium with compounds at concentrations starting at 25 μM and a serial, ½ log, 8-point, titration series in duplicate. The final DMSO concentration in the assay was 0.5%. The plates were incubated for 7 days in a humidified incubator at 37° C. and 5% CO2. Following a 7 day-incubation, the level of rcDNA present in the inhibitor-treated wells was measured using a Quantigene 2.0 bDNA assay kit (Affymetrix, Santa Clara, Calif.) with HBV specific custom probe set and manufacturers instructions. Concurrently, the effect of compounds on cell viability was assessed using replicate plates, plated at a density of 5,000 cells/well and incubated for 4 days, to determine the ATP content as a measure of cell viability using the cell-titer glo reagent (CTG; Promega Corporation, Madison, Wis.) as per manufacturer's instructions. The plates were read using a Victor luminescence plate reader (PerkinElmer Model 1420 Multilabel counter) and the relative luminescence units (RLU) data generated from each well was calculated as % inhibition of the untreated control wells and analyzed using XL-Fit module in Microsoft Excel to determine EC50 and EC90 (bDNA) and CC50 (CTG) values using a 4-parameter curve fitting algorithm.\n(§4) Representative compounds of the invention were tested for their abilities to inhibit formation of relaxed circular DNA (rcDNA) in a HepDE19 assay, as described elsewhere herein.", "units": {"EC50": "µM"}, "values": [{"smiles": "Cn1cnc(COC(=O)NC2CCc3c2cn(C)c3C(=O)Nc2ccc(F)c(Cl)c2)n1", "note": "(single isomer, unassigned) [Compound 26, (1-Methyl-1H-1,2,4-triazol-3-yl)methyl (1-((3-chloro-4-fluorophenyl)carbamoyl)-2-methyl-2,4,5,6-tetrahydrocyclopenta[c]pyrrol-4-yl)carbamate]", "EC50": 0.05}, {"smiles": "Cn1cnc(COC(=O)NC2CCc3c2c(C2CCC2)n(C)c3C(=O)Nc2ccc(F)c(Cl)c2)n1", "note": "(single isomer, unassigned) [Compound 96, (1-Methyl-1H-1,2,4-triazol-3-yl)methyl (1-((3-chloro-4-fluorophenyl)carbamoyl)-3-cyclobutyl-2-methyl-2,4,5,6-tetrahydrocyclopenta[c]pyrrol-4-yl)carbamate]", "EC50": 0.42}, {"smiles": "Cn1cnc(COC(=O)NC2CCn3c(C(=O)Nc4ccc(F)c(Cl)c4)ccc32)n1", "note": "(single isomer, unassigned) [Compound 41, (1-Methyl-1H-1,2,4-triazol-3-yl)methyl (5-((3-chloro-4-fluorophenyl)carbamoyl)-2,3-dihydro-1H-pyrrolizin-1-yl)carbamate]", "EC50": "≥ 25"}, {"smiles": "Cn1cnc(COC(=O)NC2CCc3c2c(Br)n(C)c3C(=O)Nc2ccc(F)c(Cl)c2)n1", "note": "(single isomer, unassigned) [Compound 47, (1-Methyl-1H-1,2,4-triazol-3-yl)methyl (3-bromo-1-((3-chloro-4-fluorophenyl)carbamoyl)-2-methyl-2,4,5,6-tetrahydrocyclopenta[c]pyrrol-4-yl)carbamate]", "EC50": 3.1}, {"smiles": "Cn1cnc(COC(=O)NC2CCCCc3c2cn(C)c3C(=O)Nc2ccc(F)c(Cl)c2)n1", "note": "(single isomer, unassigned) [Compound 86, (1-Methyl-1H-1,2,4-triazol-3-yl)methyl (1-((3-chloro-4-fluorophenyl)carbamoyl)-2-methyl-2,4,5,6,7,8-hexahydrocyclohepta[c]pyrrol-4-yl)carbamate]", "EC50": 0.16}, {"smiles": "Cn1cnc(COC(=O)NC2CCc3c2c(C2CC2)n(C)c3C(=O)Nc2ccc(F)c(Cl)c2)n1", "note": "(single isomer, unassigned) [Compound 91, (1-Methyl-1H-1,2,4-triazol-3-yl)methyl (1-((3-chloro-4-fluorophenyl)carbamoyl)-3-cyclopropyl-2-methyl-2,4,5,6-tetrahydrocyclopenta[c]pyrrol-4-yl)carbamate]", "EC50": 22}, {"smiles": "Cn1cc2c(c1C(=O)Nc1ccc(F)c(Cl)c1)CCC2NC(=O)OC[C@@H]1CCC(=O)N1", "note": "(single isomer, unassigned) [Compound 119]", "EC50": 1.9}, {"smiles": "Cn1cnc(COC(=O)NC2CCc3c2cn(C)c3C(=O)Nc2ccc(F)c(Cl)c2)n1", "note": "(single isomer, unassigned) [Compound 25, (1-Methyl-1H-1,2,4-triazol-3-yl)methyl (1-((3-chloro-4-fluorophenyl)carbamoyl)-2-methyl-2,4,5,6-tetrahydrocyclopenta[c]pyrrol-4-yl)carbamate]", "EC50": 3.5}, {"smiles": "Cn1cc2c(c1C(=O)Nc1ccc(F)c(Cl)c1)CCC2NC(=O)OCc1ccccn1", "note": "(stereo not shown) [Compound 2, pyridin-2-ylmethyl (1-((3-chloro-4-fluorophenyl)carbamoy1)-2-methyl-2,4,5,6-tetrahydrocyclopenta[c]pyrrol-4-yl)carbamate]", "EC50": 0.26}, {"smiles": "Cc1c2c(c(C(=O)Nc3ccc(F)c(Cl)c3)n1C)CCC2NC(=O)OCc1c[nH]nn1", "note": "(single isomer, unassigned) [Compound 131, (1H-1,2,3-Triazol-4-yl)methyl (1-((3-chloro-4-fluorophenyl)carbamoyl)-2,3-dimethyl-2,4,5,6-tetrahydrocyclopenta[c]pyrrol-4-yl)carbamate]", "EC50": 1.7}, {"smiles": "Cn1cnc(COC(=O)NC2CCc3c2c(C(F)(F)F)n(C)c3C(=O)Nc2ccc(F)c(Cl)c2)n1", "note": "(stereo not shown) [Compound 123]", "EC50": 8}]}, {"test_system": "HBV rcDNA", "test": "HepDE19 assay with bDNA quantitation of HBV rcDNA", "type": "cell-based, hepatitis B virus", "settings": "Hepatitis B virus, HepDE19, 168 h, HepDE19 cells, Tet-free medium, 7 day-incubation, rcDNA measured by Quantigene 2.0 bDNA assay, top concentration 25 μM; read-out: DE-19 bDNA EC50", "protocol": "as §1, §2, §3, §4", "units": {"EC50": "µM"}, "values": [{"smiles": "Cn1cc2c(c1C(=O)Nc1ccc(F)c(Cl)c1)CCCC2NC(=O)OCc1nc[nH]n1", "note": "(single isomer, unassigned) [Compound 88, (1H-1,2,4-Triazol-3-yl)methyl (1-((3-chloro-4-fluorophenyl)carbamoyl)-2-methyl-4,5,6,7-tetrahydro-2H-isoindol-4-yl)carbamate]", "EC50": 0.51}, {"smiles": "CCn1cc2c(c1C(=O)Nc1ccc(F)c(Cl)c1)CCC2NC(=O)C1CC1", "note": "(stereo not shown) [Compound 18, N-(3-Chloro-4-fluorophenyl)-4-(cyclopropanecarboxamido)-2-ethyl-2,4,5,6-tetrahydro cyclopenta[c]pyrrole-1-carboxamide]", "EC50": 0.35}, {"smiles": "Cn1cnc(COC(=O)NC2CCc3c2cn(C)c3C(=O)Nc2ccc(F)c(C#N)c2)n1", "note": "(single isomer, unassigned) [Compound 67, (1-methyl-1H-1,2,4-triazol-3-yl)methyl (1-((3-cyano-4-fluorophenyl)carbamoyl)-2-methyl-2,4,5,6-tetrahydrocyclopenta[c]pyrrol-4-yl)carbamate]", "EC50": 0.06}, {"smiles": "Cn1cc2c(c1C(=O)Nc1ccc(F)c(Cl)c1)CCCCC2N", "note": "(stereo not shown) [Compound 80, 4-Amino-N-(3-chloro-4-fluorophenyl)-2-methyl-2,4,5,6,7,8-hexahydro cyclohepta[c]pyrrole-1-carboxamide]", "EC50": 1.85}, {"smiles": "Cn1cc2c(c1C(=O)Nc1ccc(F)c(Cl)c1)CCC2N", "note": "(stereo not shown) [Compound 100, 4-Amino-N-(3-chloro-4-fluorophenyl)-2-methyl-2,4,5,6-tetrahydrocyclopenta[c]pyrrole-1-carboxamide]", "EC50": 3.8}, {"smiles": "Cn1c(Cl)c2c(c1C(=O)Nc1ccc(F)c(Cl)c1)CCC2NC(=O)OCc1nc[nH]n1", "note": "(stereo not shown) [Compound 103, (1H-1,2,4-Triazol-3-yl)methyl (3-chloro-1-((3-chloro-4-fluorophenyl)carbamoyl)-2-methyl-2,4,5,6-tetrahydrocyclopenta[c]pyrrol-4-yl)carbamate]", "EC50": 0.02}, {"smiles": "CCn1cc2c(c1C(=O)Nc1ccc(F)c(Cl)c1)CCC2NS(=O)(=O)C1CC1", "note": "(stereo not shown) [Compound 12, N-(3-Chloro-4-fluorophenyl)-4-(cyclopropanesulfonamido)-2-ethyl-2,4,5,6-tetrahydrocyclopenta[c]pyrrole-1-carboxamide]", "EC50": 0.26}]}, {"test_system": "HBV rcDNA", "test": "HepDE19 assay with bDNA quantitation of HBV rcDNA", "type": "cell-based, hepatitis B virus", "settings": "Hepatitis B virus, HepDE19, 168 h, read-out: DE-19 bDNA EC50 (μM), HepDE19 cells, Tet-free medium, 7 day-incubation, rcDNA measured by Quantigene 2.0 bDNA assay, top concentration 25 μM", "protocol": "as §1, §2, §3, §4", "units": {"EC50": "µM"}, "values": [{"smiles": "Cn1c(Br)c2c(c1C(=O)Nc1ccc(F)c(Cl)c1)CCC2NC(=O)OCc1nc[nH]n1", "note": "(single isomer, unassigned) [Compound 125, (1H-1,2,4-Triazol-3-yl)methyl(3-bromo-1-((3-chloro-4-fluorophenyl)carbamoyl)-2-methyl-2,4,5,6-tetrahydrocyclopenta[c]pyrrol-4-yl)carbamate]", "EC50": 0.04}, {"smiles": "CNC(=O)NC1CCc2c1cn(C)c2C(=O)Nc1ccc(F)c(Cl)c1", "note": "(racemic) [Compound 3, N-(3-chloro-4-fluorophenyl)-2-methyl-4-(3-methylureido)-2,4,5,6-tetrahydrocyclopenta[c]pyrrole-1-carboxamide]", "EC50": 0.94}]}, {"test_system": "HBV rcDNA", "test": "HepDE19 assay with bDNA quantitation of HBV rcDNA", "type": "cell-based, hepatitis B virus", "settings": "read-out: DE-19 bDNA EC50; HepDE19 cells, Tet-free medium, 7 day-incubation, rcDNA measured by Quantigene 2.0 bDNA assay, top concentration 25 μM", "protocol": "as §1, §2, §3, §4", "units": {"EC50": "µM"}, "values": [{"smiles": "CC#CCOC(=O)NC1CCc2c1cn(C)c2C(=O)Nc1ccc(F)c(Cl)c1", "note": "(single isomer, unassigned) [Compound 110, But-2-yn-1-yl (1-((3-chloro-4-fluorophenyl)carbamoyl)-2-methyl-2,4,5,6-tetrahydrocyclopenta[c]pyrrol-4-yl)carbamate]", "EC50": 1.5}, {"smiles": "COC(=O)NC1CCCc2c1cn(C)c2C(=O)Nc1ccc(F)c(Cl)c1", "note": "(single isomer, unassigned) [Compound 29, Methyl (1-((3-chloro-4-fluorophenyl)carbamoyl)-2-methyl-4,5,6,7-tetrahydro-2H-isoindol-4-yl)carbamate]", "EC50": 0.47}, {"smiles": "COC(=O)NC1CCc2c1cn(C)c2C(=O)Nc1ccc(F)c(Cl)c1", "note": "(single isomer, unassigned) [Compound 5, Methyl 1-(3-chloro-4-fluorophenylcarbamoyl)-2-methyl-2,4,5,6-tetrahydrocyclopenta[c] pyrrol-4-ylcarbamate]", "EC50": 0.99}, {"smiles": "Cn1cc2c(c1C(=O)Nc1ccc(F)c(Cl)c1)CCC2NC(=O)OCc1nn[nH]n1", "note": "(single isomer, unassigned) [Compound 149, (2H-Tetrazol-5-yl)methyl(1-((3-chloro-4-fluorophenyl)carbamoyl)-2-methyl-2,4,5,6-tetrahydrocyclopenta[c]pyrrol-4-yl)carbamate]", "EC50": 1.1}, {"smiles": "CC#CCOC(=O)NC1CCc2c1cn(C)c2C(=O)Nc1ccc(F)c(Cl)c1", "note": "(single isomer, unassigned) [Compound 111, But-2-yn-1-yl (1-((3-chloro-4-fluorophenyl)carbamoyl)-2-methyl-2,4,5,6-tetrahydrocyclopenta[c]pyrrol-4-yl)carbamate]", "EC50": 0.06}]}]}
